In patent publication US20240208992A1, “MACROCYCLES AS CFTR MODULATORS” (Idorsia Pharmaceuticals Ltd, priority 2021, published 2024):

Target: human F508del-CFTR (Homo sapiens, UniProt P13569, DEL508-508)
Test: F508del-CFTR cell surface expression (corrector activity), DiscoveRx ß-galactosidase complementation chemiluminescence assay in recombinant U2OS cell line;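 further: U2OS cells co-expressing ProLink-tagged F508del-CFTR and a membrane-anchored enzyme acceptor, where more surface CFTR restores β-galactosidase activity measured by chemiluminescence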
Conditions: U2OS cell line, 16h compound incubation; for EC50: EC50, F508del-CFTR cell surface expression, geomean values; for Emax: U2OS, in relation to the Emax of the corrector lumacaftor (=100%), arithmetic mean values

Chain of human F508del-CFTR (P13569 with tags, fused parts or gaps DEL508-508): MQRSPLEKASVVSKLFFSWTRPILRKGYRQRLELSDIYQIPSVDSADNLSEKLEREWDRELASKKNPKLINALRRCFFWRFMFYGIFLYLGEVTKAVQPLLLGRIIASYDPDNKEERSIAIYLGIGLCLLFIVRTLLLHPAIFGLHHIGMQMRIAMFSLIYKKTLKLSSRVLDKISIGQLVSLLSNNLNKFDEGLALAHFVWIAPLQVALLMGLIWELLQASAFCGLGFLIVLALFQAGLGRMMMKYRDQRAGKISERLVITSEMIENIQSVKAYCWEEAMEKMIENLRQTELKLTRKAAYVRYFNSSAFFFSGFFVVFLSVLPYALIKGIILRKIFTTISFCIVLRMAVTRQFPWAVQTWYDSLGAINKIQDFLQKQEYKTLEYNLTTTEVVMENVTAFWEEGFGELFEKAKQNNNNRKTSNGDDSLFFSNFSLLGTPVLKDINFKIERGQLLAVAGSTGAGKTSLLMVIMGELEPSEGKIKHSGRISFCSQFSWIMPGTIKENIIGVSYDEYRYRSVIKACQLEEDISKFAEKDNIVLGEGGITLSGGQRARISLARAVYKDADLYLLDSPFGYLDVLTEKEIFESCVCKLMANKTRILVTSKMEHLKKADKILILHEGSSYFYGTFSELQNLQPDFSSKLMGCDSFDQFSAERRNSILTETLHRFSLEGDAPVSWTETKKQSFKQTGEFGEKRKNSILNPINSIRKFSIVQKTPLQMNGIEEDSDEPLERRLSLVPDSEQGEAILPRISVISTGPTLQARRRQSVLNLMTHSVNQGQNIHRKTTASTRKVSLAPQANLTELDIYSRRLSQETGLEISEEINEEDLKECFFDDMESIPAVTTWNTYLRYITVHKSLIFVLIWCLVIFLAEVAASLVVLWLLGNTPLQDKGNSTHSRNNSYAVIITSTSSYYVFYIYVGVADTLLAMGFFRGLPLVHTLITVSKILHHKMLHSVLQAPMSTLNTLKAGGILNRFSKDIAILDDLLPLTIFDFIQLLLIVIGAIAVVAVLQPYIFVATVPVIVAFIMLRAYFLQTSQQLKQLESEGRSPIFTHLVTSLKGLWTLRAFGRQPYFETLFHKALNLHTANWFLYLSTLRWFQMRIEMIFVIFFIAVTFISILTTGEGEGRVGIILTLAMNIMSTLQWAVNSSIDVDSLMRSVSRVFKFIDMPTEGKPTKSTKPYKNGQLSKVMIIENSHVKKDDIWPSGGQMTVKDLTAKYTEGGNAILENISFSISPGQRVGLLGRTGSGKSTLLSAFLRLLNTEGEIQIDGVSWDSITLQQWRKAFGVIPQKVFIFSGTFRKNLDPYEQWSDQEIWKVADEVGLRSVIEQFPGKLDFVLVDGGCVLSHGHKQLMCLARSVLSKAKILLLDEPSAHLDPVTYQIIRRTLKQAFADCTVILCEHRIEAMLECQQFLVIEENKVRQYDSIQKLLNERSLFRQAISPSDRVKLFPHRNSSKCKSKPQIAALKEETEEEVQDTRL

| Compound | EC50 [µM] | Emax [%] |
| --- | --- | --- |
| COc1cccc(CCNC(=O)[C@@H]2CC(=O)N(C)[C@@H](CC(C)C)C(=O)N3CCN(C4CCC4)C[C@@H]3C(=O)N[C@H](Cc3ccccc3)COc3ccc4ccccc4c3C(=O)N2)c1 [Example 355, (4aR,7R,18S,22S)-7-benzyl-3-cyclobutyl-22-isobutyl-N-(3-methoxyphenethyl)-21-methyl-5,16,20,23-tetraoxo-2,3,4,4a,5,6,7,8,16,17,18,19,20,21,22,23-hexadecahydro-1H-naphtho[1,2-p]pyrazino[2,1-f][1]oxa[4,7,10,14]tetraazacycloheptadecine-18-carboxamide] | 0.087 | 307 |
| COc1cccc(CCNC(=O)[C@@H]2CC(=O)N(C)[C@@H](CC(C)C)C(=O)N3CCN(C4CC4)C[C@@H]3C(=O)N[C@H](Cc3ccccc3)COc3ccc4ccccc4c3C(=O)N2)c1 [Example 356, (4aR,7R,18S,22S)-7-benzyl-3-cyclopropyl-22-isobutyl-N-(3-methoxyphenethyl)-21-methyl-5,16,20,23-tetraoxo-2,3,4,4a,5,6,7,8,16,17,18,19,20,21,22,23-hexadecahydro-1H-naphtho[1,2-p]pyrazino[2,1-f][1]oxa[4,7,10,14]tetraazacycloheptadecine-18-carboxamide] | 0.167 | 353 |
| COc1cccc(CCNC(=O)[C@@H]2CC(=O)N(C)[C@@H](CC(C)C)C(=O)N3CCN(C4CC4)C[C@H]3C(=O)N[C@H](Cc3ccccc3)COc3ccc4ccccc4c3C(=O)N2)c1 [Example 357, (4aS,7R,18S,22S)-7-benzyl-3-cyclopropyl-22-isobutyl-N-(3-methoxyphenethyl)-21-methyl-5,16,20,23-tetraoxo-2,3,4,4a,5,6,7,8,16,17,18,19,20,21,22,23-hexadecahydro-1H-naphtho[1,2-p]pyrazino[2,1-f][1]oxa[4,7,10,14]tetraazacycloheptadecine-18-carboxamide] | 0.475 | 124 |
| CN1C(=O)C[C@@H](C(=O)NCCc2ccc3c(c2)OCO3)NC(=O)c2c(ccc3ccccc23)OC[C@@H](Cc2ccccc2)NC(=O)CN(CC[C@@H]2CCCCO2)C(=O)[C@@H]1CC1CC1 [Example 358, (3S,7S,13R)-N-(2-(benzo[d][1,3]dioxol-5-yl)ethyl)-13-benzyl-7-(cyclopropylmethyl)-6-methyl-1,5,8,11-tetraoxo-9-(2-((S)-tetrahydro-2H-pyran-2-yl)ethyl)-1,2,3,4,5,6,7,8,9,10,11,12,13,14-tetradecahydronaphtho[1,2-p][1]oxa[4,7,10,14]tetraazacycloheptadecine-3-carboxamide] | 0.411 | 171 |
| CN1C(=O)C[C@@H](C(=O)NCCc2ccc3c(c2)OCO3)NC(=O)c2c(ccc3ccccc23)OC[C@@H](Cc2ccccc2)NC(=O)CN(CC[C@H]2CCCCO2)C(=O)[C@@H]1CC1CC1 [Example 359, (3S,7S,13R)-N-(2-(benzo[d][1,3]dioxol-5-yl)ethyl)-13-benzyl-7-(cyclopropylmethyl)-6-methyl-1,5,8,11-tetraoxo-9-(2-((R)-tetrahydro-2H-pyran-2-yl)ethyl)-1,2,3,4,5,6,7,8,9,10,11,12,13,14-tetradecahydronaphtho[1,2-p][1]oxa[4,7,10,14]tetraazacycloheptadecine-3-carboxamide] | 0.318 | 144 |
| CN1C(=O)C[C@@H](C(=O)NCCc2ccc3c(c2)OCO3)NC(=O)c2c(ccc3ccccc23)OC[C@@H](Cc2ccccc2)NC(=O)CN(CC[C@@H]2CCCCO2)C(=O)[C@@H]1CC1CCC1 [Example 360, (3S,7S,13R)-N-(2-(benzo[d][1,3]dioxol-5-yl)ethyl)-13-benzyl-7-(cyclobutylmethyl)-6-methyl-1,5,8,11-tetraoxo-9-(2-((S)-tetrahydro-2H-pyran-2-yl)ethyl)-1,2,3,4,5,6,7,8,9,10,11,12,13,14-tetradecahydronaphtho[1,2-p][1]oxa[4,7,10,14]tetraazacycloheptadecine-3-carboxamide] | 0.184 | 224 |
| CN1C(=O)C[C@@H](C(=O)NCCc2ccc3c(c2)OCO3)NC(=O)c2c(ccc3ccccc23)OC[C@@H](Cc2ccccc2)NC(=O)CN(CC[C@H]2CCCCO2)C(=O)[C@@H]1CC1CCC1 [Example 361, (3S,7S,13R)-N-(2-(benzo[d][1,3]dioxol-5-yl)ethyl)-13-benzyl-7-(cyclobutylmethyl)-6-methyl-1,5,8,11-tetraoxo-9-(2-((R)-tetrahydro-2H-pyran-2-yl)ethyl)-1,2,3,4,5,6,7,8,9,10,11,12,13,14-tetradecahydronaphtho[1,2-p][1]oxa[4,7,10,14]tetraazacycloheptadecine-3-carboxamide] | 0.264 | 183 |
| CC(C)C[C@H]1C(=O)N(CC[C@@H]2CCCCO2)CC(=O)N[C@H](Cc2ccccc2)COc2ccc3ccccc3c2C(=O)N[C@H](C(=O)NCCc2ccc3c(c2)OCO3)CC(=O)N1C [Example 362, (3S,7S,13R)-N-(2-(benzo[d][1,3]dioxol-5-yl)ethyl)-13-benzyl-7-isobutyl-6-methyl-1,5,8,11-tetraoxo-9-(2-((S)-tetrahydro-2H-pyran-2-yl)ethyl)-1,2,3,4,5,6,7,8,9,10,11,12,13,14-tetradecahydronaphtho[1,2-p][1]oxa[4,7,10,14]tetraazacycloheptadecine-3-carboxamide] | 0.153 | 247 |
| CC(C)C[C@H]1C(=O)N(CC[C@H]2CCCCO2)CC(=O)N[C@H](Cc2ccccc2)COc2ccc3ccccc3c2C(=O)N[C@H](C(=O)NCCc2ccc3c(c2)OCO3)CC(=O)N1C [Example 363] | 0.252 | 230 |
| COc1cccc(CCNC(=O)[C@@H]2CC(=O)N(C)[C@@H](CC(C)C)C(=O)N3CCN(CC(C)C)C[C@@H]3C(=O)N[C@H](Cc3ccccc3)COc3ccc4ncn(C)c4c3C(=O)N2)c1 [Example 364, (8S,12S,18aR,21R)-21-benzyl-12,17-diisobutyl-N-(3-methoxyphenethyl)-5,11-dimethyl-6,10,13,19-tetraoxo-6,7,8,9,10,11,12,13,16,17,18,18a,19,20,21,22-hexadecahydro-5H,15H-imidazo[4′,5′:5,6]benzo[1,2-p]pyrazino[2,1-f][1]oxa[4,7,10,14]tetraazacycloheptadecine-8-carboxamide] | 0.264 | 201 |
| COc1cccc(CCNC(=O)[C@@H]2CC(=O)N(C)[C@@H](CC(C)C)C(=O)N3CCCC[C@@H]3C(=O)N[C@H](Cc3ccccc3)COc3cnc4ccccc4c3C(=O)N2)c1 [Example 365, (9S,13S,19aR,22R)-22-benzyl-13-isobutyl-N-(3-methoxyphenethyl)-12-methyl-7,11,14,20-tetraoxo-7,8,9,10,11,12,13,14,17,18,19,19a,20,21,22,23-hexadecahydro-16H-pyrido[2′,1′:6,7][1]oxa[4,7,10,14]tetraazacycloheptadecino[17,16-c]quinoline-9-carboxamide] | 0.398 | 387 |
| COc1cccc(CCNC(=O)[C@@H]2CC(=O)N(C)[C@@H](CC(C)C)C(=O)N3CCCC[C@H]3C(=O)N[C@H](Cc3ccccc3)COc3cnc4ccccc4c3C(=O)N2)c1 [Example 366, (9S,13S,19aS,22R)-22-benzyl-13-isobutyl-N-(3-methoxyphenethyl)-12-methyl-7,11,14,20-tetraoxo-7,8,9,10,11,12,13,14,17,18,19,19a,20,21,22,23-hexadecahydro-16H-pyrido[2′,1′:6,7][1]oxa[4,7,10,14]tetraazacycloheptadecino[17,16-c]quinoline-9-carboxamide] | 0.265 | 172 |
| Cc1cc(CCNC(=O)[C@@H]2CC(=O)N(C)[C@@H](CC(C)C)C(=O)N3CCCC[C@@H]3C(=O)N[C@H](Cc3ccccc3)COc3cnc4ccccc4c3C(=O)N2)on1 [Example 367, (9S,13S,19aR,22R)-22-benzyl-13-isobutyl-12-methyl-N-(2-(3-methylisoxazol-5-yl)ethyl)-7,11,14,20-tetraoxo-7,8,9,10,11,12,13,14,17,18,19,19a,20,21,22,23-hexadecahydro-16H-pyrido[2′,1′:6,7][1]oxa[4,7,10,14]tetraazacycloheptadecino[17,16-c]quinoline-9-carboxamide] | 0.249 | 321 |
| COc1cc(CCNC(=O)[C@@H]2CC(=O)N(C)[C@@H](CC(C)C)C(=O)N3CCCC[C@@H]3C(=O)N[C@H](Cc3ccccc3)COc3ccc4oc(C)nc4c3C(=O)N2)cc(OC)c1 [Example 368, (8S,12S,18aR,21R)-21-benzyl-N-(3,5-dimethoxyphenethyl)-12-isobutyl-4,11-dimethyl-6,10,13,19-tetraoxo-6,7,8,9,10,11,12,13,16,17,18,18a,19,20,21,22-hexadecahydro-15H-oxazolo[5′,4′:5,6]benzo[1,2-p]pyrido[2,1-f][1]oxa[4,7,10,14]tetraazacycloheptadecine-8-carboxamide] | 0.918 | 147 |
| COc1cccc(CCNC(=O)[C@@H]2CC(=O)N(C)[C@@H](CC(C)C)C(=O)N3CCN(C(=O)OCC(Cl)(Cl)Cl)C[C@@H]3C(=O)N[C@H](Cc3ccccc3)COc3ccc4ccccc4c3C(=O)N2)c1 [Example 369, 2,2,2-trichloroethyl (4aR,7R,18S,22S)-7-benzyl-22-isobutyl-18-((3-methoxyphenethyl)carbamoyl)-21-methyl-5,16,20,23-tetraoxo-1,2,4,4a,5,6,7,8,16,17,18,19,20,21,22,23-hexadecahydro-3H-naphtho[1,2-p]pyrazino[2,1-f][1]oxa[4,7,10,14]tetraazacycloheptadecine-3-carboxylate] | 0.107 | 243 |
| CC(C)C[C@H]1C(=O)N2CCOC[C@@H]2C(=O)N[C@H](Cc2ccccc2)COc2ccc3ccccc3c2C(=O)N[C@H](C(=O)NCCc2nc3c(s2)CCC3)CC(=O)N1C [Example 370, (4aR,7R,18S,22S)-7-benzyl-N-(2-(5,6-dihydro-4H-cyclopenta[d]thiazol-2-yl)ethyl)-22-isobutyl-21-methyl-5,16,20,23-tetraoxo-1,2,4,4a,5,6,7,8,16,17,18,19,20,21,22,23-hexadecahydronaphtho[1,2-p][1,4]oxazino[3,4-f][1]oxa[4,7,10,14]tetraazacycloheptadecine-18-carboxamide] | 0.388 | 229 |
